Laboratory results as given in ChEMBL document CHEMBL1201862, “PubChem BioAssay data set” (2004).
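Briefly, cells in 96-well plates were exposed to five compound concentrations for 48 h, and endpoints were estimated by linear interpolation. GI50 marks 50% less growth.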 The source made the active and inactive calls. No stated cut-off is given here; in the data, active = GI50 up to about 1.1 µM and inactive = higher.

Key:
Test in all cases: DTP human tumour cell line panel, 48 h
A549 = system: A549
EKVX = system: EKVX
HCT-116 = system: HCT-116
HCT-15 = system: HCT-15
HL-60 = system: HL-60
HOP-62 = system: HOP-62
HT-29 = system: HT-29
K562 = system: K562
KM12 = system: KM12
NCI-H226 = system: NCI-H226
NCI-H460 = system: NCI-H460
OVCAR-5 = system: OVCAR-5
RPMI-8226 = system: RPMI-8226
SF-539 = system: SF-539
SK-MEL-28 = system: SK-MEL-28
SK-MEL-5 = system: SK-MEL-5
SNB-19 = system: SNB-19
SW-620 = system: SW-620
UACC-257 = system: UACC-257
TK-10 = system: TK-10

Row | SMILES | GI50 (A549) | GI50 (EKVX) | GI50 (HCT-116) | GI50 (HCT-15) | GI50 (HL-60) | GI50 (HOP-62) | GI50 (HT-29) | GI50 (K562) | GI50 (KM12) | GI50 (NCI-H226) | GI50 (NCI-H460) | GI50 (OVCAR-5) | GI50 (RPMI-8226) | GI50 (SF-539) | GI50 (SK-MEL-28) | GI50 (SK-MEL-5) | GI50 (SNB-19) | GI50 (SW-620) | GI50 (UACC-257) | GI50 (TK-10)
1 | Cc1cc(NC(=S)Nc2ccccc2)c(NC(=S)Nc2ccccc2)cc1C | 23.3 µM (inactive) | 39.3 µM (inactive) | 14.3 µM (inactive) | 13.8 µM | 1.9 µM (inactive) | 15.5 µM (inactive) | 36.6 µM (inactive) | 9.44 µM (inactive) | 5.11 µM (inactive) | 47.6 µM (inactive) | 12.9 µM (inactive) | > 65 µM (inactive) | 8.47 µM (inactive) | 16 µM (inactive) | 38.8 µM (inactive) | 11.4 µM (inactive) | 47.9 µM (inactive) | 11.6 µM (inactive) | 44 µM (inactive) | –
2 | CCOc1ncn(-c2ccc(NC(=S)Nc3ncccn3)cc2)n1 | 32.1 µM (inactive) | 64 µM (inactive) | 32.5 µM (inactive) | 39 µM | 16.2 µM (inactive) | > 100 µM (inactive) | 13 µM (inactive) | 25.8 µM (inactive) | > 100 µM (inactive) | – | 41.4 µM (inactive) | 54.8 µM (inactive) | 10.6 µM (inactive) | 15.4 µM (inactive) | 26.1 µM (inactive) | 18.2 µM (inactive) | 54 µM (inactive) | 54.6 µM (inactive) | 28.9 µM (inactive) | 41.3 µM (inactive)
3 | O=C(CCN1CCOCC1)/C(=C/c1ccccc1)c1ccccc1 | 15.6 µM (inactive) | 8.18 µM (inactive) | 3.47 µM (inactive) | 2.19 µM | 1.79 µM (inactive) | 26.1 µM (inactive) | 4.49 µM (inactive) | 1.89 µM (inactive) | 6.25 µM (inactive) | 7.55 µM (inactive) | 8.95 µM (inactive) | 16.6 µM (inactive) | 2 µM (inactive) | 2.92 µM (inactive) | 5.37 µM (inactive) | 8.45 µM (inactive) | 11 µM (inactive) | 2.47 µM (inactive) | 2.74 µM (inactive) | –
4 | O=C(Nc1ccccc1C(=O)NCCCO)/C(=C/c1ccccc1O)NC(=O)c1ccccc1 | > 100 µM (inactive) | 65.6 µM (inactive) | 37.3 µM (inactive) | > 78.2 µM | > 100 µM (inactive) | 20.5 µM (inactive) | > 100 µM (inactive) | > 100 µM (inactive) | 18.4 µM (inactive) | 39.3 µM (inactive) | > 72.1 µM (inactive) | > 100 µM (inactive) | > 100 µM (inactive) | 30.8 µM (inactive) | > 100 µM (inactive) | > 100 µM (inactive) | 16.9 µM (inactive) | > 84.3 µM (inactive) | > 100 µM (inactive) | 97.9 µM (inactive)
5 | CCP(=O)(CC)C(Cl)(Cl)C(O)C(Cl)(Cl)Cl (stereo unspecified) | > 100 µM (inactive) | – | > 100 µM (inactive) | > 100 µM | > 100 µM (inactive) | > 100 µM (inactive) | > 100 µM (inactive) | > 100 µM (inactive) | – | > 100 µM (inactive) | > 100 µM (inactive) | > 100 µM (inactive) | > 100 µM (inactive) | – | > 100 µM (inactive) | > 100 µM (inactive) | > 100 µM (inactive) | > 100 µM (inactive) | > 100 µM (inactive) | > 100 µM (inactive)
6 | Cc1c(C)c2ccc(OCC(O)COC(C)C)c(C)c2oc1=O (stereo unspecified) | 34.7 µM (inactive) | 45.5 µM (inactive) | 18.5 µM (inactive) | – | 35 µM (inactive) | 28.7 µM (inactive) | 31 µM (inactive) | 25.4 µM (inactive) | 56.1 µM (inactive) | – | 16.7 µM (inactive) | 39.1 µM (inactive) | 21.4 µM (inactive) | – | 34 µM (inactive) | 16.4 µM (inactive) | 57.5 µM (inactive) | 29.4 µM (inactive) | 19.8 µM (inactive) | 25.1 µM (inactive)
7 | CCOC(=O)Cc1cc(OC)c(OC)cc1/C(Cl)=C(\C=O)c1ccc(OC)c(OC)c1 | 16.9 µM (inactive) | 22.1 µM (inactive) | 14.4 µM (inactive) | 17.5 µM | 17.3 µM (inactive) | 9.35 µM (inactive) | 15.8 µM (inactive) | 17.2 µM (inactive) | – | – | 3.4 µM (inactive) | – | 9.75 µM (inactive) | – | 24.2 µM (inactive) | 17.1 µM (inactive) | 34.4 µM (inactive) | 22.9 µM (inactive) | 18.9 µM (inactive) | 26 µM (inactive)
8 | O=C1c2cccc(O)c2C(=O)c2c(O)cc(CO)cc21 [ALOE-EMODIN] | 40 µM (inactive) | – | 30.1 µM (inactive) | 28.1 µM | 24.8 µM (inactive) | > 100 µM (inactive) | 30.9 µM (inactive) | – | 40.2 µM (inactive) | > 100 µM (inactive) | 29.4 µM (inactive) | > 100 µM (inactive) | 31.5 µM (inactive) | – | > 100 µM (inactive) | 15.8 µM (inactive) | 49.1 µM (inactive) | 30.5 µM (inactive) | 49.8 µM (inactive) | > 100 µM (inactive)
9 | CCOC(=O)NC(Nc1ncccn1)(C(F)(F)F)C(F)(F)F | – | > 100 µM (inactive) | > 100 µM (inactive) | > 100 µM | > 100 µM (inactive) | > 100 µM (inactive) | > 100 µM (inactive) | > 100 µM (inactive) | > 100 µM (inactive) | > 100 µM (inactive) | > 100 µM (inactive) | > 100 µM (inactive) | > 100 µM (inactive) | > 100 µM (inactive) | > 100 µM (inactive) | – | > 100 µM (inactive) | – | > 100 µM (inactive) | > 100 µM (inactive)
10 | CC(Sc1ccccc1)C(CO)(CO)[N+](=O)[O-] (stereo unspecified) | 19.8 µM (inactive) | 18.2 µM (inactive) | 17.8 µM (inactive) | 11.5 µM | 3.58 µM (inactive) | 18.2 µM (inactive) | 16.3 µM (inactive) | 11.2 µM (inactive) | – | 16.5 µM (inactive) | 22.8 µM (inactive) | 22.3 µM (inactive) | 18.9 µM (inactive) | 16.7 µM (inactive) | – | 12.7 µM (inactive) | 21.4 µM (inactive) | 14.4 µM (inactive) | 14 µM (inactive) | 18.9 µM (inactive)
11 | CC1=C2C(O)C(C(C)C(=O)N(C)C)CCC2(C)C=CC1=O (stereo unspecified) | > 100 µM (inactive) | > 100 µM (inactive) | > 100 µM (inactive) | > 100 µM | > 100 µM (inactive) | > 100 µM (inactive) | > 100 µM (inactive) | > 100 µM (inactive) | > 100 µM (inactive) | > 100 µM (inactive) | > 100 µM (inactive) | > 100 µM (inactive) | > 100 µM (inactive) | > 100 µM (inactive) | > 100 µM (inactive) | > 100 µM (inactive) | > 100 µM (inactive) | > 100 µM (inactive) | > 100 µM (inactive) | –
12 | CC1=Nc2c(N)nc(N)nc2N(C)C1 | – | > 100 µM (inactive) | – | > 100 µM | > 100 µM (inactive) | > 100 µM (inactive) | – | > 100 µM (inactive) | > 100 µM (inactive) | > 100 µM (inactive) | > 100 µM (inactive) | > 100 µM (inactive) | > 100 µM (inactive) | > 100 µM (inactive) | > 100 µM (inactive) | > 100 µM (inactive) | > 100 µM (inactive) | > 100 µM (inactive) | > 100 µM (inactive) | > 100 µM (inactive)
13 | O=C(N/C(=C\c1ccccc1[N+](=O)[O-])c1nc2ccccc2[nH]1)c1ccccc1 | – | – | – | 88.9 µM | – | – | > 100 µM (inactive) | 43.9 µM (inactive) | > 100 µM (inactive) | – | – | > 100 µM (inactive) | – | – | > 100 µM (inactive) | 72.8 µM (inactive) | > 100 µM (inactive) | 58.5 µM (inactive) | – | > 100 µM (inactive)
14 | Cc1nc(O)nc(O)c1/C=C/C(=O)O | > 1000 µM (inactive) | > 1000 µM (inactive) | > 1000 µM (inactive) | > 1000 µM | > 1000 µM (inactive) | > 1000 µM (inactive) | > 1000 µM (inactive) | > 1000 µM (inactive) | > 1000 µM (inactive) | > 1000 µM (inactive) | > 1000 µM (inactive) | > 891 µM (inactive) | > 1000 µM (inactive) | > 1000 µM (inactive) | > 1000 µM (inactive) | > 1000 µM (inactive) | > 1000 µM (inactive) | > 1000 µM (inactive) | > 1000 µM (inactive) | –
15 | CCC1C(C#N)=C(O)NC(O)=C1C#N | > 100 µM (inactive) | > 100 µM (inactive) | > 100 µM (inactive) | > 100 µM | – | > 100 µM (inactive) | > 100 µM (inactive) | – | > 100 µM (inactive) | > 100 µM (inactive) | > 100 µM (inactive) | > 100 µM (inactive) | > 100 µM (inactive) | > 100 µM (inactive) | > 100 µM (inactive) | > 100 µM (inactive) | > 100 µM (inactive) | > 100 µM (inactive) | > 100 µM (inactive) | > 100 µM (inactive)
16 | O=C1CCC(=O)C1=NNc1ccccc1 | > 100 µM (inactive) | > 100 µM (inactive) | > 100 µM (inactive) | > 100 µM | > 100 µM (inactive) | > 100 µM (inactive) | > 100 µM (inactive) | > 100 µM (inactive) | > 100 µM (inactive) | > 100 µM (inactive) | > 100 µM (inactive) | > 100 µM (inactive) | – | > 100 µM (inactive) | > 100 µM (inactive) | 80.4 µM (inactive) | > 100 µM (inactive) | > 100 µM (inactive) | > 100 µM (inactive) | > 100 µM (inactive)
